Reference: patent US20150344540A1, “NOVEL GLP-1 RECEPTOR AGONISTS WITH CHOLESTEROL EFFLUX ACTIVITY” (NOVO NORDISK A/S, priority 2012, published 2015)
Where a SMILES comes first, the peptide text is derived from it. [ ]: non-standard residue; d: D form. Aib = CC(C)(N)C(=O)O

What follows are compounds tested on Mouse monocyte/macrophage cell line, RAW 264.7 (assay: Cholesterol efflux assay (3H-cholesterol, macrophage cell line)). Details: RAW 264.7, 4 hrs incubation, 0.1% human serum albumin, ABCA1-mediated efflux.
Type: cell-based

Compound | 4 h Cholesterol Efflux Emax
CC[C@H](C)[C@H](NC(=O)[C@H](Cc1ccccc1)NC(=O)[C@H](CCC(=O)O)NC(=O)[C@H](CCCCN)NC(=O)[C@@H](NC(=O)[C@H](C)NC(=O)[C@H](Cc1c[nH]c2ccccc12)NC(=O)CNC(=O)[C@H](CCC(=O)O)NC(=O)[C@H](CC(C)C)NC(=O)[C@H](Cc1ccc(O)cc1)NC(=O)[C@H](CO)NC(=O)[C@H](CO)NC(=O)[C@@H](NC(=O)[C@H](CC(=O)O)NC(=O)[C@H](CO)NC(=O)[C@@H](NC(=O)[C@H](Cc1ccccc1)NC(=O)[C@@H](NC(=O)CNC(=O)[C@H](CCC(=O)O)NC(=O)C(C)(C)NC(=O)[C@@H](N)Cc1c[nH]cn1)[C@@H](C)O)[C@@H](C)O)C(C)C)C(C)C)C(=O)N[C@@H](C)C(=O)N[C@@H](Cc1c[nH]c2ccccc12)C(=O)N[C@@H](CC(C)C)C(=O)N[C@H](C(=O)N[C@@H](CCC(=O)O)C(=O)N[C@@H](CCCCN)C(=O)NC(C)(C)C(=O)N[C@@H](CCCCN)C(=O)N[C@@H](CCC(=O)O)C(=O)N[C@@H](Cc1ccccc1)C(=O)N[C@@H](CC(C)C)C(N)=O)C(C)C [Compound 21, [Aib8,Trp23,Val25,Glu34,Lys35,Aib36,Lys37]-GLP-1-(7-37)-peptidyl-Glu-Phe-Leu amide] (H-H[Aib]EGTFTSDVSSYLEGWAVKEFIAWLVEK[Aib]KEFL-NH2) | 70%
CC[C@H](C)[C@H](NC(=O)[C@H](Cc1ccccc1)NC(=O)[C@H](CCC(=O)O)NC(=O)[C@H](CCCCN)NC(=O)[C@@H](NC(=O)[C@H](C)NC(=O)[C@H](CCC(=O)O)NC(=O)CNC(=O)[C@H](CCC(=O)O)NC(=O)[C@H](CC(C)C)NC(=O)[C@H](Cc1ccc(O)cc1)NC(=O)[C@H](CO)NC(=O)[C@H](CO)NC(=O)[C@@H](NC(=O)[C@H](CC(=O)O)NC(=O)[C@H](CO)NC(=O)[C@@H](NC(=O)[C@H](Cc1ccccc1)NC(=O)[C@@H](NC(=O)CNC(=O)[C@H](CCC(=O)O)NC(=O)C(C)(C)NC(=O)[C@@H](N)Cc1c[nH]cn1)[C@@H](C)O)[C@@H](C)O)C(C)C)C(C)C)C(=O)N[C@@H](C)C(=O)N[C@@H](Cc1c[nH]c2ccccc12)C(=O)N[C@@H](CC(C)C)C(=O)N[C@H](C(=O)N[C@@H](CCC(=O)O)C(=O)N[C@@H](CCCCN)C(=O)NC(C)(C)C(=O)N[C@@H](CCCCN)C(=O)N[C@@H](CCC(=O)O)C(=O)N[C@@H](Cc1ccccc1)C(=O)N[C@@H](Cc1c[nH]cn1)C(N)=O)C(C)C [Compound 22, [Aib8,Glu23,Val25,Glu34,Lys35,Aib36,Lys37]-GLP-1-(7-37)-peptidyl-Glu-Phe-His amide] (H-H[Aib]EGTFTSDVSSYLEGEAVKEFIAWLVEK[Aib]KEFH-NH2) | 106%
CC[C@H](C)[C@H](NC(=O)[C@H](Cc1ccccc1)NC(=O)[C@H](CCC(N)=O)NC(=O)[C@H](CCCCN)NC(=O)[C@@H](NC(=O)[C@H](C)NC(=O)[C@H](CCC(N)=O)NC(=O)CNC(=O)[C@H](CCC(=O)O)NC(=O)[C@H](CC(C)C)NC(=O)[C@H](Cc1ccc(O)cc1)NC(=O)[C@H](CO)NC(=O)[C@H](CO)NC(=O)[C@@H](NC(=O)[C@H](CC(=O)O)NC(=O)[C@H](CO)NC(=O)[C@@H](NC(=O)[C@H](Cc1ccccc1)NC(=O)[C@@H](NC(=O)CNC(=O)[C@H](CCC(=O)O)NC(=O)C(C)(C)NC(=O)[C@@H](N)Cc1c[nH]cn1)[C@@H](C)O)[C@@H](C)O)C(C)C)C(C)C)C(=O)N[C@@H](C)C(=O)N[C@@H](Cc1c[nH]c2ccccc12)C(=O)N[C@@H](CC(C)C)C(=O)N[C@H](C(=O)N[C@@H](CCC(=O)O)C(=O)N[C@@H](CCCCN)C(=O)NC(C)(C)C(=O)N[C@@H](C)C(=O)N[C@@H](CCC(=O)O)C(=O)N[C@@H](Cc1ccccc1)C(=O)N[C@@H](CC(C)C)C(N)=O)C(C)C [Compound 72] (H-H[Aib]EGTFTSDVSSYLEGQAVKQFIAWLVEK[Aib]AEFL-NH2) | 78%
CC[C@H](C)[C@H](NC(=O)[C@H](Cc1ccccc1)NC(=O)[C@H](CC(=O)O)NC(=O)[C@H](CCCCN)NC(=O)[C@@H](NC(=O)[C@H](C)NC(=O)[C@H](CC(=O)O)NC(=O)CNC(=O)[C@H](CCC(=O)O)NC(=O)[C@H](CC(C)C)NC(=O)[C@H](Cc1ccc(O)cc1)NC(=O)[C@H](CO)NC(=O)[C@H](CO)NC(=O)[C@@H](NC(=O)[C@H](CC(=O)O)NC(=O)[C@H](CO)NC(=O)[C@@H](NC(=O)[C@H](Cc1ccccc1)NC(=O)[C@@H](NC(=O)CNC(=O)[C@H](CCC(=O)O)NC(=O)C(C)(C)NC(=O)[C@@H](N)Cc1c[nH]cn1)[C@@H](C)O)[C@@H](C)O)C(C)C)C(C)C)C(=O)N[C@@H](C)C(=O)N[C@@H](Cc1c[nH]c2ccccc12)C(=O)N[C@@H](CC(C)C)C(=O)N[C@H](C(=O)N[C@@H](CCC(=O)O)C(=O)N[C@@H](CCCCN)C(=O)NC(C)(C)C(=O)N[C@@H](CCCCN)C(=O)N[C@@H](CCC(=O)O)C(=O)N[C@@H](Cc1ccccc1)C(=O)N[C@@H](CC(C)C)C(N)=O)C(C)C [Compound 18, [Aib8,Asp23,Val25,Asp27,Glu34,Lys35,Aib36,Lys37]-GLP-1-(7-37)-peptidyl-Glu-Phe-Leu amide] (H-H[Aib]EGTFTSDVSSYLEGDAVKDFIAWLVEK[Aib]KEFL-NH2) | 89%
H-HAEGTFTSDVSSYLEGEAVKEFIAWLVEKVKEHLEK-OH [Compound 125, [Glu23,Val25,Glu34,Lys35,Val36,Lys37]-GLP-1-(7-37)-peptidyl-Glu-His-Leu-Glu-Lys] | 111%
CC[C@H](C)[C@H](NC(=O)[C@H](Cc1ccccc1)NC(=O)[C@H](CCCCN)NC(=O)[C@H](CCCCN)NC(=O)[C@@H](NC(=O)[C@H](C)NC(=O)[C@H](CCC(=O)O)NC(=O)CNC(=O)[C@H](CCC(=O)O)NC(=O)[C@H](CC(C)C)NC(=O)[C@H](Cc1ccc(O)cc1)NC(=O)[C@H](CO)NC(=O)[C@H](CO)NC(=O)[C@@H](NC(=O)[C@H](CC(=O)O)NC(=O)[C@H](CO)NC(=O)[C@@H](NC(=O)[C@H](Cc1ccccc1)NC(=O)[C@@H](NC(=O)CNC(=O)[C@H](CCC(=O)O)NC(=O)C(C)(C)NC(=O)[C@@H](N)Cc1c[nH]cn1)[C@@H](C)O)[C@@H](C)O)C(C)C)C(C)C)C(=O)N[C@@H](C)C(=O)N[C@@H](Cc1c[nH]c2ccccc12)C(=O)N[C@@H](CC(C)C)C(=O)N[C@H](C(=O)N[C@@H](CCC(=O)O)C(=O)N[C@@H](CCCCN)C(=O)NC(C)(C)C(=O)N[C@@H](CCCCN)C(=O)N[C@@H](CCC(=O)O)C(=O)N[C@@H](Cc1ccccc1)C(=O)N[C@@H](CC(C)C)C(N)=O)C(C)C [Compound 51, [Aib8,Glu23,Val25,Lys27,Glu34,Lys35,Aib36,Lys37]-GLP-1-(7-37)-peptidyl-Glu-Phe-Leu amide] (H-H[Aib]EGTFTSDVSSYLEGEAVKKFIAWLVEK[Aib]KEFL-NH2; N-terminus assumed) | 117%
CC[C@H](C)[C@H](NC(=O)[C@H](Cc1ccccc1)NC(=O)[C@H](CCC(=O)O)NC(=O)[C@H](CCCNC(=N)N)NC(=O)[C@@H](NC(=O)[C@H](C)NC(=O)[C@H](CCC(=O)O)NC(=O)[C@H](CCC(=O)O)NC(=O)[C@H](CCC(=O)O)NC(=O)[C@H](CCSC)NC(=O)[C@H](CCC(N)=O)NC(=O)[C@H](CCCCN)NC(=O)[C@H](CO)NC(=O)[C@H](CC(C)C)NC(=O)[C@H](CC(=O)O)NC(=O)[C@H](CO)NC(=O)[C@@H](NC(=O)[C@H](Cc1ccccc1)NC(=O)[C@@H](NC(=O)CNC(=O)[C@H](CCC(=O)O)NC(=O)C(C)(C)NC(=O)[C@@H](N)Cc1c[nH]cn1)[C@@H](C)O)[C@@H](C)O)C(C)C)C(=O)N[C@@H](CCC(=O)O)C(=O)N[C@@H](Cc1c[nH]c2ccccc12)C(=O)N[C@@H](CC(C)C)C(=O)N[C@@H](CCCCN)C(=O)N[C@@H](CC(N)=O)C(=O)N[C@@H](CCCCN)C(=O)NC(C)(C)C(=O)N[C@@H](CC(C)C)C(=O)N[C@@H](CCC(=O)O)C(=O)N[C@@H](Cc1ccccc1)C(=O)N[C@@H](CC(C)C)C(N)=O [Compound 42, [Aib2,Glu21, Lvs29,Aib30,Leu31,Glu32,Phe33,Leu34]-Exendin-4-(1-34)-peptide amide] (H-H[Aib]EGTFTSDLSKQMEEEAVREFIEWLKNK[Aib]LEFL-NH2; N-terminus assumed) | 105%
CC[C@H](C)[C@H](NC(=O)[C@H](Cc1ccccc1)NC(=O)[C@H](CCC(=O)O)NC(=O)[C@H](CCCCN)NC(=O)[C@@H](NC(=O)[C@H](C)NC(=O)[C@H](CCC(=O)O)NC(=O)CNC(=O)[C@H](CCC(=O)O)NC(=O)[C@H](CC(C)C)NC(=O)[C@H](Cc1ccc(O)cc1)NC(=O)[C@H](CO)NC(=O)[C@H](CO)NC(=O)[C@@H](NC(=O)[C@H](CC(=O)O)NC(=O)[C@H](CO)NC(=O)[C@@H](NC(=O)[C@H](Cc1ccccc1)NC(=O)[C@@H](NC(=O)CNC(=O)[C@H](CCC(=O)O)NC(=O)C(C)(C)NC(=O)[C@@H](N)Cc1c[nH]cn1)[C@@H](C)O)[C@@H](C)O)C(C)C)C(C)C)C(=O)N[C@@H](C)C(=O)N[C@@H](Cc1c[nH]c2ccccc12)C(=O)N[C@@H](CC(C)C)C(=O)N[C@H](C(=O)N[C@@H](CCC(=O)O)C(=O)N[C@@H](CCCCN)C(=O)N[C@H](C(=O)N[C@@H](CCCCN)C(=O)N[C@@H](CCC(=O)O)C(=O)N[C@@H](CC(C)C)C(=O)N[C@@H](CC(C)C)C(N)=O)C(C)C)C(C)C [Compound 119, [Aib8,Glu23,Val25,Glu34,Lys35,Val36,Lys37]-GLP-1-(7-37)-peptidyl-Glu-Leu-Leu amide] (H-H[Aib]EGTFTSDVSSYLEGEAVKEFIAWLVEKVKELL-NH2) | 117%

Same assay, conditions: read-out: 4 h Cholesterol Efflux EC50; RAW 264.7, 4 hrs incubation, 0.1% human serum albumin, ABCA1-mediated efflux (CPT-cAMP induced minus non-induced)

Compound | EC50
CC[C@H](C)[C@H](NC(=O)[C@H](Cc1ccccc1)NC(=O)[C@H](CCCCN)NC(=O)[C@H](CCCCN)NC(=O)[C@@H](NC(=O)[C@H](C)NC(=O)[C@H](CCC(=O)O)NC(=O)CNC(=O)[C@H](CCC(=O)O)NC(=O)[C@H](CC(C)C)NC(=O)[C@H](Cc1ccc(O)cc1)NC(=O)[C@H](CO)NC(=O)[C@H](CO)NC(=O)[C@@H](NC(=O)[C@H](CC(=O)O)NC(=O)[C@H](CO)NC(=O)[C@@H](NC(=O)[C@H](Cc1ccccc1)NC(=O)[C@@H](NC(=O)CNC(=O)[C@H](CCC(=O)O)NC(=O)C(C)(C)NC(=O)[C@@H](N)Cc1c[nH]cn1)[C@@H](C)O)[C@@H](C)O)C(C)C)C(C)C)C(=O)N[C@@H](C)C(=O)N[C@@H](Cc1c[nH]c2ccccc12)C(=O)N[C@@H](CC(C)C)C(=O)N[C@H](C(=O)N[C@@H](CCC(=O)O)C(=O)N[C@@H](CCCCN)C(=O)NC(C)(C)C(=O)N[C@@H](CCCCN)C(=O)N[C@@H](CCC(=O)O)C(=O)N[C@@H](Cc1ccccc1)C(=O)N[C@@H](CC(C)C)C(N)=O)C(C)C [Compound 51, [Aib8,Glu23,Val25,Lys27,Glu34,Lys35,Aib36,Lys37]-GLP-1-(7-37)-peptidyl-Glu-Phe-Leu amide] (H-H[Aib]EGTFTSDVSSYLEGEAVKKFIAWLVEK[Aib]KEFL-NH2; N-terminus assumed) | 440 nM
